Data on 1 compound can be found in patent US11656230B2, “Method for predicting cancer sensitivity” (Eutropics Pharmaceuticals, Inc., priority 2013, dated 2023).

Assay [1] deals with Bcl-XL/BIM-BH3 heterodimer (Homo sapiens, UniProt Q07817). Briefly: ELISA: inhibition of HSBXB binding to non-covalent Bcl-XL-GST/BIM-BH3 heterodimer by ABT-263. The note with it: heterodimers formed with BIM peptide on Glutathione-coated ELISA plates; compound added after peptides and before monoclonal antibody; FIG. 15. As for the experimental part:
The compound was added to the ELISA plates after addition of peptides and before adding the monoclonal antibody. The Bib BH3 domain peptide was added as a negative control.
ABT-263 disrupts Bcl-2/Bcl-xL interactions with pro-death proteins (e.g., Bim), leading to the initiation of apoptosis within 2 hours post treatment (Tse et al., 2008).

Assay [2] deals with Bcl-XL/BIM heterodimer in SKBR3 cells (Homo sapiens, UniProt Q07817). As to the kind of experiment: Near-infrared imaging of HSBXB binding in paraformaldehyde fixed cells incubated with ABT-263. The assay is classed as cell-based. The note with it: different concentrations of ABT-263, FIG. 17.
Bcl-XL/BIM heterodimer in SKBR3 cells, sequence (Q07817 whole entry, one chain of several): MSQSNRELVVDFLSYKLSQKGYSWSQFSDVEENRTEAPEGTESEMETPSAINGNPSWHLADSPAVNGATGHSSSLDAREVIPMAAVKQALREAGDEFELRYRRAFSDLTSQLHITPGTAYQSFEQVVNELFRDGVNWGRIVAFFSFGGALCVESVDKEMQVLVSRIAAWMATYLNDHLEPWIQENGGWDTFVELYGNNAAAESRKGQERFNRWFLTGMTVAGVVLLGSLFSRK
From the text: IRDye 800CW goat anti-mouse antibody was used for detecting the heterodimer specific mouse monoclonal antibody and IRDye 800CW Goat anti-rabbit antibody was used to detect the commercial Bcl-XL rabbit monoclonal antibody. […] The detection system uses near-infrared (IR) fluorophores (670-1100 nm) that have a distinct advantage over visible dyes, in that very low background fluorescence at longer wavelengths provides an excellent signal-to-noise ratio. […] In this system antibodies labeled with IR dyes at different wavelengths are used for detection of multiple targets. The imager simultaneously detects two distinct wavelengths. A scanning optical assembly carries two laser diodes that generate excitation light at 680 and 780 nm, as well as two avalanche photodiodes, which detect emitted fluorescence at 720 and 820 nm. […] IRDye 800CW goat anti-mouse antibody was used for detecting the heterodimer specific mouse monoclonal antibody and IRDye 800CW Goat anti-rabbit antibody was used to detect the commercial Bcl-XL rabbit monoclonal antibody.
Assay [3] has as its target Bcl-xL/Bim heterodimer in JEKO-1 cells (Homo sapiens, UniProt Q07817). As to the kind of experiment: Flow cytometry (FACS), intracellular staining with HSBXB antibody. It counts as cell-based. The conditions noted are these: 10 uM, 3 hours on ice, clone 32 at 10 ug/ml, FIG. 18. (In general: A flow cytometer gives signals particle by particle.)
From the text: As a positive control we pretreated with the Bim BH3 peptide at a concentration that achieve saturated binding to the endogenous Bcl-XL. […] To enhance staining and to establish a positive control we added saturating amount of the Bim BH3 peptide to partially lysed cells. As a negative control we pretreated with BH3 mimetic compound, ABT 263 to displace Bim from Bcl-xL. In this experiment 5×10e6 JEKO 1 cells were suspended in Newmeyer buffer (Ryan et al Proc Natl Acad Sci USA 2010; 107:12895-900), digitonin (Sigma-Aldrich, St Louis Mo.) and treated with 100 uM Bim BH3 peptide; or ABT263 compound at 10 uM; or not treated. Cells were incubated on ice for 3 hours, and then washed and treated with clone 32 at 10 ug/ml for 20 minutes, washed again and stained with secondary goat anti-mouse IgG alexa-488. An IgG-2A isotype control was also prepared and run in parallel. Samples are analyzed on a FACS Canto II (BD Biosciences, San Jose Calif.) using the BD FACS Diva software.
In assay [4] the test system is mitochondrial outer membrane permeabilization (MOMP). As to the kind of experiment: Mitochondrial profiling assay (MOMP). It counts as cell-based. The conditions noted are these: mitochondrial profiling assay (unpublished data).
From the text: In one embodiment, this can be determined by measuring the mitochondrial outer membrane permeabilization (MOMP), which increases when a cell is about to undergo apoptosis. Mitochondrial outer membrane permeabilization can be measured for example, using the potentiometric dye JC-1 or dihydrorhodamine. MOMP can be measured using standard techniques known in the art, including those described in Bogenberger et al. (Leukemia et al. (2014) which is herein incorporated by reference in its entirety). In a non-limiting example, cells are permeabilized and incubated with a mitochondrial dye (e.g. JC-1 or dihydrorhodamine 123) and BH3 peptides with dimethyl sulfoxide or carbonyl cyanide m-chlorophenyl hydrazone (CCCP) and the degree of staining is measured. […] As a positive control we pretreated with the Bim BH3 peptide at a concentration that achieve saturated binding to the endogenous Bcl-XL. This treatment is routinely used as a positive control for complete mitochondrial priming in our mitochondrial profiling AML test. […] To enhance staining and to establish a positive control we added saturating amount of the Bim BH3 peptide to partially lysed cells. […] Samples are analyzed on a FACS Canto II (BD Biosciences, San Jose Calif.) using the BD FACS Diva software.
Assay [5] has as its system Bcl-2/Bcl-xL interactions with pro-death proteins (e.g., Bim). The note with it: Tse et al., 2008; cited from earlier work.

Bcl-xL/Bim heterodimer in JEKO-1 cells, sequence (Q07817 whole entry, one chain of several): as above
Bcl-XL/BIM-BH3 heterodimer, sequence (Q07817 whole entry, the tested form may be a part, one chain of several): as the sequence (Q07817 whole entry, one chain of several) above

For the compound `CC1(C)CCC(c2ccc(Cl)cc2)=C(CN2CCN(c3ccc(C(=O)NS(=O)(=O)c4ccc(N[C@H](CCN5CCOCC5)CSc5ccccc5)c(S(=O)(=O)C(F)(F)F)c4)cc3)CC2)C1` [ABT-263, Navitoclax], in assay [1], the “inhibition of heterodimer antibody signal” value is given as “dose-dependent inhibition of heterodimer antibody signal”. Further, the “displacement of Bcl-xL bound BIM BH3 peptide detected by HSBXB” value in assay [2] is “displacement of the Bcl-xL bound BIM BH3 peptide is detected”. In assay [3], the “displacement of Bim from Bcl-xL by flow cytometry using HSBXB antibody” value is “this displacement in measurable by flow cytometry”. The “MOMP on displacement of Bim” value in assay [4] is “results in MOMP”. In addition, the “time to initiation of apoptosis post treatment” value in assay [5] is not above 2 h.
